Experiments:
Type in all cases: physicochemical
[1] = Stability of the crystalline form under accelerated conditions of temperature and humidity; conditions: solid form; up to 4 weeks
From the text: (§1) As previously noted, the N-2 form was selected due to a number of properties including chemical/physical stability, reproducibility and hygroscopicity.

[2] = Stability of milled API under high humidity and temperature open dish conditions; conditions: up to 2 weeks, 25° C./60% RH and 40° C./75% RH open
From the text: as §1

[3] = Stability on exposure to UV/HIL; conditions: solid form; 4 days
From the text: as §1

- stability under accelerated conditions of temperature and humidity [1]: stable
- stability under high humidity and temperature open dish conditions [2]: stable
- stability on exposure to UV/HIL [3]: stable
SMILES: CCn1c(C(=O)N(C2CC2)C2CC2)cc2c3c(ncn3C)c(Nc3cc(C)n(C)n3)nc21 [Form N-2, N,N-dicyclopropyl-4-(1,5-dimethyl-1H-pyrazol-3-ylamino)-6-ethyl-1-methyl-1,6-dihydroimidazo[4,5-d]pyrrolo[2,3-b]pyridine-7-carboxamide]

— patent US9464086B2, “Crystalline forms of N,N-dicyclopropyl-4-(1,5-dimethyl-1 H-pyrazol-3-ylamino)-6-ethyl-1-methyl-1,6-dihydroimidazo[4,5-D]pyrrolo[2,3-B]pyridine-7-carboxamide for the treatment of myeloproliferative disorders” (BRISTOL-MYERS SQUIBB COMPANY, priority 2013, dated 2016)
